One series relates to plasmid DNA (pRSETB). Kind of series: Peptide-DNA binding by agarose gel electrophoresis. As to conditions: peptide/DNA ratios 0.25:1 to 4:1, 300 ng plasmid DNA. How it is done: Specifically, 300 ng of plasmid DNA (pRSETB) was reacted with the peptide by a relative ratio (reactions were performed at peptide/DNA ratios of DNA alone, 0.25:1, 0.5:1, 1:1, 1.5:1, 2:1, 3:1, 4:1, respectively) at 37° C. for 10 minutes, followed by conducting electrophoresis on a 1% agarose gel, staining the same with ethidium bromide (EtBr) and monitoring through UV.

In series [1] the test system is E. coli and Staphylococcus aureus cells. Kind of series: Scanning electron microscope analysis of bacterial membrane. Type of series: cell-based, Escherichia coli. The following applies: at MIC, 37° C., 1 hour. The method, then: In order to confirm whether the synthetic peptides of the present invention prepared by the method of above 1 would damage the bacterial cell membrane, it was investigated through a scanning electron microscope.
As a control, a strain not treated with peptide was used. After incubation, the cells were recovered, treated with 2.5% glutaraldehyde at 4° C. for 18 hours, and washed twice with PBS buffer solution. The fixed cells were dehydrated for 10 minutes using 100% ethanol and diluted ethanol (50%, 70%, 90% and 100%) in sequential order, and then the samples were dried and coated with platinum, followed by observation through a low vacuum scanning electron microscope.

A short description of series [2]: Calcein release from LUVs. As to conditions: P/L ratio of 0.05. How it is done: To examine the mechanism of action of PEP27 and PEP27-2, we evaluated the changes in bacterial cell membrane permeability by monitoring the release of calcein, a fluorescent marker, from calcein entrapped LUVs with different lipid bilayer compositions.
Peptide-induced membrane permeabilization was quantified by monitoring calcein release from LUVs (n=3 per condition). Different calcein-entrapped LUVs [PE/PG (7/3) or PC/CH/SM (1/1/1)] were prepared as described above, except that the dry lipid films were resuspended in 1 mL of PBS (pH 7.2) containing 70 mM calcein. Gel filtration chromatography on a Sephadex G-50 column was performed to separate free calcein from that entrapped in LUVs. Thereafter, the LUVs with entrapped calcein were mixed with peptides at various ratios, and the fluorescence of the released calcein was measured with a SpectraMax M3 Multi-Mode Microplate Reader (Molecular Devices, Sunnyvale, CA, USA) at excitation and emission wavelengths of 480 and 520 nm, respectively.

The subject of another series is E. coli ATCC 25922. The series can be described thus: Cytoplasmic membrane depolarization (DiSC3-5). Type of series: cell-based, Escherichia coli. As to conditions: 4×MIC. How it is done: We also used E. coli cells and the membrane potential-sensitive cyanine dye 3,3′-dipropylthiadicarbocyanine iodide (DiSC3-5) to test the ability of PEP27 and PEP27-2 to depolarize Gram-negative bacterial membranes (FIG. 15B to FIG. 15E).
Depolarization of the cytoplasmic membrane by the peptides was measured using the membrane potential-sensitive dye DiSC3-5 (Merck KGaA, n=4 per condition) with intact E. coli cells as previously described. 66 Mid-log-phase E. coli ATCC 25922 cells were washed with 5 mM HEPES buffer containing 20 mM glucose and resuspended to an OD600 of 0.05 in 5 mM HEPES buffer containing 20 mM glucose and 0.1 M KCl. The cell suspension was incubated with 1 μM DiSC3-5 for 1 h. […] Fluorescence was measured at excitation and emission wavelengths of 622 and 670 nm, respectively.
When the bacterial cytoplasmic membrane is disrupted, the membrane potential dissipates E. coli, and DiSC3-5 is released into the culture medium, resulting in a fluorescence increase. After stabilization for 10 min by treatment with DiSC3-5, AMPs were added, and the plasma membrane potential of E. coli was confirmed by monitoring the change in fluorescence intensity for another 30 min.

The test system of another series is E. coli. Kind of series: Flow cytometry, propidium iodide staining. In kind it is cell-based, Escherichia coli. As to conditions: E. coli, flow cytometry. The method, then: In order to confirm whether the peptide prepared by the method of above 1 acts on the bacterial membrane, PEP27-2 peptide having better antimicrobial activity than the parental peptide was analyzed through flow cytometry.
Thereafter, the supernatant was removed using a centrifuge (10,000 rpm) and stained with propidium iodide (PI) at a concentration of 10 μg/ml at 4° C. for 30 minutes. Then, the unbound propidium iodide (PI) was removed using the centrifuge, and 1 ml of physiological saline (PBS) was added to remove agglomeration of the cells. Thereafter, effects of the peptide on the bacterial membrane were determined using a Bechman flow cytometer.

A further series deals with S. aureus ATCC 25923. The series can be described thus: Time-kill kinetics. Type of series: cell-based, Staphylococcus aureus. As to conditions: at MIC, after 20 min of treatment. How it is done:
Time-killing kinetics were analyzed for E. coli ATCC 25922 and S. aureus ATCC 25923 in the presence of PEP27-2 at their respective MICs. The bacterial cells were cultured overnight until they reached the exponential growth phase; they were then incubated at 37° C. for an additional 10 min from 0 min to 1 h. The total bacterial population was then stained with QUANTOM total cell staining dye, after which the stained cells were mixed with QUANTOM cell loading buffer and loaded into QUANTOM M50 Slides. The slides were centrifuged using the QUANTOM centrifuge to evenly distribute them throughout the counting chamber and ensure accurate cell counts. Intracellular fluorescence was detected using the QUANTOM Tx microbial cell counter, which captures and counts cells automatically (Logos Biosystems, Gyeonggi-do, South Korea).

For a further series, the system named is E. coli CCARM1229. In kind it is cell-based, Escherichia coli. As to conditions: E. coli CCARM1229, antibiotics-tolerant; 37° C., 18 hours. How it is done:
(§1) In order to evaluate the antimicrobial activity of the peptides prepared by the method of above 1, a minimal inhibitory concentration (MIC) value as the minimum concentration of a peptide, in which cells are not divided, was measured.
(§2) Specifically, the strains shown in Table 3 below were purchased, cultured in a medium having a constitutional composition suitable for each strain to a mid-log phase, and then diluted to a concentration of 2×10^4 cells/100 μl to prepare the product on a micro-titration plate (Nunc, USA). Then, PEP27, PEP27-1, PEP27-2 or PEP27-5 peptide synthesized in the above 1 was added to each well by serial dilution ½ times, followed by incubation at 37° C. for 18 hours.

For a further series, the system named is E. coli ATCC25922. Type of series: cell-based, Escherichia coli. The following applies: ATCC25922, 18 h. How it is done:
as §1, §2

Series [3] has as its system 11 types of strains (Staphylococcus aureus, Pseudomonas erujinosa). Kind of series: MIC, summary over the strains of Table 7. Type of series: cell-based. How it is done:
In order to compare the antimicrobial activity of PEP27-2, which is the peptide having the most excellent antimicrobial activity among the peptides prepared by the method of above 1, with existing antibiotics, MIC concentrations of specific antibiotics were investigated with regard to the same gram-positive bacteria (Staphylococcus aureus) and the same gram-negative bacteria (Pseudomonas erujinosa) stains. Specifically, subject strains were prepared by the method of above 2, and were treated with the antibiotics, that is, meropenem, ceftazidime, ceftriaxone or vancomycin, respectively, followed by determining MICs of the antibiotics.

In brackets after ≈: the same amount, converted by molar mass. Where a SMILES comes first, the peptide text is derived from it.

Take `CC[C@H](C)[C@H](NC(=O)CN)C(=O)NCC(=O)N[C@@H](C)C(=O)N[C@H](C(=O)N[C@@H](CC(C)C)C(=O)N[C@@H](CCCCN)C(=O)N[C@H](C(=O)N[C@@H](CC(C)C)C(=O)N[C@H](C(=O)N[C@H](C(=O)NCC(=O)N[C@@H](CC(C)C)C(=O)N1CCC[C@H]1C(=O)N[C@@H](C)C(=O)N[C@@H](CC(C)C)C(=O)N[C@H](C(=O)N[C@@H](CO)C(=O)N[C@@H](Cc1c[nH]c2ccccc12)C(=O)N[C@H](C(=O)N[C@@H](CCCCN)C(=O)N[C@@H](CCCNC(=N)N)C(=O)N[C@@H](CCCCN)C(=O)N[C@@H](CCCNC(=N)N)C(=O)N[C@@H](CCC(N)=O)C(=O)N[C@@H](CCC(N)=O)C(N)=O)[C@@H](C)CC)[C@@H](C)CC)[C@@H](C)O)[C@@H](C)O)C(C)C)C(C)C` [Melittin, reference compound]: the “binding to DNA (gel electrophoresis)” value in the series on plasmid DNA (pRSETB) was “not bound to any DNA”. Moreover, in [1], the “bacterial cell membrane damage by SEM” value is listed as “significant membrane damage”. Also, the maximum calcein leakage in series [2] is 100%. For the same compound, in the series with E. coli ATCC 25922, the “DiSC3-5 fluorescence intensity (membrane depolarization)” value is approximately 140. In the series with E. coli, the “bacterial membrane destruction” value is recorded as “found to have cell membrane destruction ability”.

Turning to `CSCC[C@H](N)C(=O)N[C@@H](Cc1c[nH]c2ccccc12)C(=O)N[C@@H](CCCCN)C(=O)N[C@@H](Cc1c[nH]c2ccccc12)C(=O)N[C@@H](Cc1ccccc1)C(=O)N[C@@H](Cc1c[nH]cn1)C(=O)N[C@@H](CC(N)=O)C(=O)N[C@H](C(=O)N[C@@H](CC(C)C)C(=O)N[C@@H](CO)C(=O)N[C@@H](Cc1c[nH]c2ccccc12)C(=O)NCC(=O)N[C@@H](Cc1c[nH]c2ccccc12)C(=O)N[C@@H](CC(C)C)C(=O)N[C@@H](CC(C)C)C(=O)N[C@@H](C)C(=O)N[C@@H](CC(=O)O)C(=O)N[C@@H](CCCCN)C(=O)N[C@@H](CCCNC(=N)N)C(=O)N1CCC[C@H]1C(=O)N[C@@H](C)C(=O)N[C@@H](CCCNC(=N)N)C(=O)N[C@@H](CC(=O)O)C(=O)N[C@@H](Cc1ccc(O)cc1)C(=O)N[C@@H](CC(N)=O)C(=O)N[C@@H](CCCNC(=N)N)C(=O)N[C@@H](CCCCN)C(N)=O)C(C)C` [PEP27-2] (H-MWKWFHNVLSWGWLLADKRPARDYNRK-NH2), the “decrease in S. aureus cell viability” value in the series with S. aureus ATCC 25923 is listed as 97.48%. For the same compound, the Minimal inhibitory concentration with E. coli CCARM1229 and in the series with E. coli ATCC25922 was 4 µM (≈ 13.9 µg/mL) throughout. Further, the “MIC range over the strains of Table 7” value in series [3] fell in the range of 2 to 4 µM.

The values above are taken from patent US12180252B2, “Peptide derived from PEP27 peptide and uses thereof” (priority 2021, dated 2024).
